Reference: US20230295197A1, “STAT5 and STAT6 Degraders and Uses Thereof” (REGENTS OF THE UNIVERSITY OF MICHICAN, priority 2022, published 2023)
Where two headings read alike, the source gives them in different places.

Assays:
STAT5 = test: Immunoblotting (Western blot) analysis of STAT5 degradation efficiency of degraders in treated cells; format: cell-based
Method in brief: (§1)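 About 1 million cells per point, grown in 10% FBS medium at 37 °C/5% CO2, were exposed to compound at the indicated concentrations and times, then lysed in RIPA buffer with protease and phosphatase inhibitors. Equal protein (20-40 μg) was resolved by SDS-PAGE, blotted to PVDF, and probed with anti-STAT5, anti-STAT6 and anti-GAPDH antibodies.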

STAT6 = biological target: T1, STAT6 (Homo sapiens, UniProt P42226); test: Immunoblotting (Western blot) analysis of STAT6 degradation efficiency of degraders in treated cells; format: cell-based
T1 construct: endogenous in cells; host or cells: MOLM-16, KU-812, SKNO1, MB231, L1236
T1 sequence (P42226 1-847): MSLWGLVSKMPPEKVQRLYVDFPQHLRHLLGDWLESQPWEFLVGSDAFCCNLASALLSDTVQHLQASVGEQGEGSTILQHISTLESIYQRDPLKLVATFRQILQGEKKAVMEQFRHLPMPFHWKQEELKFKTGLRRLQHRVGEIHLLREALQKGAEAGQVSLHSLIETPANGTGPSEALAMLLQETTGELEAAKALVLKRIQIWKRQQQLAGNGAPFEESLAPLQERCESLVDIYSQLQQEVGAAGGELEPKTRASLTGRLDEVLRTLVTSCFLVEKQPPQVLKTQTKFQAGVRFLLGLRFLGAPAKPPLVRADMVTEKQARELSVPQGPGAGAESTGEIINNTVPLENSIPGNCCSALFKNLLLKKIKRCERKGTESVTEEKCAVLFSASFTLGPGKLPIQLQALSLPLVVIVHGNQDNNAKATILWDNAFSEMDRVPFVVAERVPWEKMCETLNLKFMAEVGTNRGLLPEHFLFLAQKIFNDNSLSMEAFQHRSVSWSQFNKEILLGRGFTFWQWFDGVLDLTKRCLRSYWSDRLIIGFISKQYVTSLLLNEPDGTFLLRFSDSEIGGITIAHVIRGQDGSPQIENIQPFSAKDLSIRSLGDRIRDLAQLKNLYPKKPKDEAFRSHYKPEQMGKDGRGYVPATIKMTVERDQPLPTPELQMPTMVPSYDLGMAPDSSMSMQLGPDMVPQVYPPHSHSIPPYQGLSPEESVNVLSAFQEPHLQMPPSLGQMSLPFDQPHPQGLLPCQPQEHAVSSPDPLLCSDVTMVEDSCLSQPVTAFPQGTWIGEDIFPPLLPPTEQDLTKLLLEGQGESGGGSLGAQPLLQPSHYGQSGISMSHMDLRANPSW
Method in brief: as §1

[1] = MOLM-16 cells, numeric bound, read-out: DC50 S5 MOLM-16
[2] = MOLM-16 cells, numeric bound, read-out: DC50 S6 MOLM-16
[3] = SKNO1 cells, read-out: DC50 S5 SKNO1
[4] = L1236 cells, read-out: DC50 S6 L1236
[5] = MB231 cells, read-out: DC50 S6 MB231
[6] = MOLM-16 cells, class symbols, read-out: DC50 S5 MOLM-16
[7] = KU-812 cells, read-out: DC50 S5 KU-812

| DC50 (STAT6; [2]) [µM] | DC50 (STAT5; [3]) [µM] | DC50 (STAT6; [4]) [µM] | DC50 (STAT6; [5]) [µM] | Structure (SMILES) | further results |
| --- | --- | --- | --- | --- | --- |
|  | > 10 | > 10 | > 10 | CN(C(=O)[C@@H]1C[C@@H](OCC(=O)NCCCCCCC#Cc2cccc3c2CN(C2CCC(=O)NC2=O)C3=O)CN1C(=O)[C@@H](NC(=O)c1cc2cc(C(F)(F)P(=O)(O)O)ccc2s1)C(C)(C)C)c1ccc(Br)cc1 (stereo partly drawn) [Compound 413, ((2-(((2S)-1-((2S,4R)-2-((4-bromophenyl)(methyl)carbamoyl)-4-(2-((8-(2-(2,6-dioxopiperidin-3-yl)-1-oxoisoindolin-4-yl)oct-7-yn-1-yl)amino)-2-oxoethoxy)pyrrolidin-1-yl)-3,3-dimethyl-1-oxobutan-2-yl)carbamoyl)benzo[b]thiophen-5-yl)difluoromethyl)phosphonic acid] |  |
|  | > 10 | > 10 | > 10 | CN(C(=O)[C@@H]1C[C@@H](OCC(=O)NCCCCCC#Cc2cccc3c2CN(C2CCC(=O)NC2=O)C3=O)CN1C(=O)[C@@H](NC(=O)c1cc2cc(C(F)(F)P(=O)(O)O)ccc2s1)C(C)(C)C)c1ccc(Br)cc1 (stereo partly drawn) [Compound 412, ((2-(((2S)-1-((2S,4R)-2-((4-bromophenyl)(methyl)carbamoyl)-4-(2-((7-(2-(2,6-dioxopiperidin-3-yl)-1-oxoisoindolin-4-yl)hept-6-yn-1-yl)amino)-2-oxoethoxy)pyrrolidin-1-yl)-3,3-dimethyl-1-oxobutan-2-yl)carbamoyl)benzo[b]thiophen-5-yl)difluoromethyl)phosphonic acid] |  |
| > 0.3 |  |  |  | CN(CCCC#Cc1cccc2c1CN(C1CCC(=O)NC1=O)C2=O)C(=O)CCN(C(=O)[C@@H]1CCCN1C(=O)[C@@H](NC(=O)c1cc2cc(C(F)(F)P(=O)(O)OCOC(=O)C(C)(C)C)ccc2s1)C(C)(C)C)c1ccc2occc2c1 (stereo partly drawn) [Compound 672, ((((2-(((2S)-1-((2S)-2-(benzofuran-5-yl(3-((5-(2-(2,6-dioxopiperidin-3-yl)-1-oxoisoindolin-4-yl)pent-4-yn-1-yl)(methyl)amino)-3-oxopropyl)carbamoyl)pyrrolidin-1-yl)-3,3-dimethyl-1-oxobutan-2-yl)carbamoyl)benzo[b]thiophen-5-yl)difluoromethyl)(hydroxy)phosphoryl)oxy)methyl pivalate] | DC50 (STAT5; [6]): < 0.1 µM |
| > 0.3 | 0.1 to 1 |  |  | CC(C)(C)[C@H](NC(=O)c1cc2cc(C(F)(F)P(=O)(O)O)ccc2s1)C(=O)N1CCC[C@H]1C(=O)N(CCC(=O)NCCCC#Cc1cccc2c1CN(C1CCC(=O)NC1=O)C2=O)c1ccc2scnc2c1 (stereo partly drawn) [Compound 668, ((2-(((2S)-1-((2S)-2-(benzo[d]thiazol-5-yl(3-((5-(2-(2,6-dioxopiperidin-3-yl)-1-oxoisoindolin-4-yl)pent-4-yn-1-yl)amino)-3-oxopropyl)carbamoyl)pyrrolidin-1-yl)-3,3-dimethyl-1-oxobutan-2-yl)carbamoyl)benzo[b]thiophen-5-yl)difluoromethyl)phosphonic acid] | DC50 (STAT5; [7]): 0.1 to 1 µM; DC50 (STAT5; [6]): < 0.1 µM |
| > 0.3 |  |  |  | CC(C)(C)[C@H](NC(=O)c1cc2cc(C(F)(F)P(=O)(O)O)ccc2s1)C(=O)N1C[C@H](OCCCCCCC#Cc2cccc3c2CN(C2CCC(=O)NC2=O)C3=O)C[C@H]1C(=O)Nc1ncc(-c2ccccc2)s1 (stereo partly drawn) [Compound 606, ((2-(((2S)-1-((2S,4R)-4-((8-(2-(2,6-dioxopiperidin-3-yl)-1-oxoisoindolin-4-yl)oct-7-yn-1-yl)oxy)-2-((5-phenylthiazol-2-yl)carbamoyl)pyrrolidin-1-yl)-3,3-dimethyl-1-oxobutan-2-yl)carbamoyl)benzo[b]thiophen-5-yl)difluoromethyl)phosphonic acid] | DC50 (STAT5; [1]): > 0.3 µM |
| > 0.3 | > 10 |  |  | CC(C)(C)[C@H](NC(=O)c1cc2cc(C(F)(F)P(=O)(O)O)ccc2s1)C(=O)N1CCC[C@H]1C(=O)N(CCC(=O)NCCCC#Cc1cccc2c1CN(C1CCC(=O)NC1=O)C2=O)c1ccc2c(c1)CCCO2 (stereo partly drawn) [Compound 669, ((2-(((2S)-1-((2S)-2-(chroman-6-yl(3-((5-(2-(2,6-dioxopiperidin-3-yl)-1-oxoisoindolin-4-yl)pent-4-yn-1-yl)amino)-3-oxopropyl)carbamoyl)pyrrolidin-1-yl)-3,3-dimethyl-1-oxobutan-2-yl)carbamoyl)benzo[b]thiophen-5-yl)difluoromethyl)phosphonic acid] | DC50 (STAT5; [1]): > 0.3 µM |
|  | 0.1 to 1 |  | > 10 | CC(C)(C)[C@H](NC(=O)c1cc2cc(C(F)(F)P(=O)(O)O)ccc2s1)C(=O)N1CCC[C@H]1C(=O)N(CCC(=O)NCCCCCC#Cc1cccc2c1CN(C1CCC(=O)NC1=O)C2=O)c1ccc(Br)cc1 (stereo partly drawn) [Compound 405, ((2-(((2S)-1-((2S)-2-((4-bromophenyl)(3-((7-(2-(2,6-dioxopiperidin-3-yl)-1-oxoisoindolin-4-yl)hept-6-yn-1-yl)amino)-3-oxopropyl)carbamoyl)pyrrolidin-1-yl)-3,3-dimethyl-1-oxobutan-2-yl)carbamoyl)benzo[b]thiophen-5-yl)difluoromethyl)phosphonic acid] | DC50 (STAT5; [7]): 0.1 to 1 µM; DC50 (STAT5; [6]): 0.1 to 1 µM; DC50 (STAT6; MOLM-16 cells, class symbols, read-out: DC50 S6 MOLM-16): > 10 µM |
|  | > 10 | > 10 | > 10 | CN(C(=O)[C@@H]1C[C@@H](OCC(=O)NCCCC#Cc2cccc3c2CN(C2CCC(=O)NC2=O)C3=O)CN1C(=O)[C@@H](NC(=O)c1cc2cc(C(F)(F)P(=O)(O)O)ccc2s1)C(C)(C)C)c1ccc(Br)cc1 (stereo partly drawn) [Compound 411, ((2-(((2S)-1-((2S,4R)-2-((4-bromophenyl)(methyl)carbamoyl)-4-(2-((5-(2-(2,6-dioxopiperidin-3-yl)-1-oxoisoindolin-4-yl)pent-4-yn-1-yl)amino)-2-oxoethoxy)pyrrolidin-1-yl)-3,3-dimethyl-1-oxobutan-2-yl)carbamoyl)benzo[b]thiophen-5-yl)difluoromethyl)phosphonic acid] |  |
|  | > 10 | > 10 | > 10 | CN(C(=O)[C@@H]1C[C@@H](OCC(=O)NCCCCCCCCCC#Cc2cccc3c2CN(C2CCC(=O)NC2=O)C3=O)CN1C(=O)[C@@H](NC(=O)c1cc2cc(C(F)(F)P(=O)(O)O)ccc2s1)C(C)(C)C)c1ccc(Br)cc1 (stereo partly drawn) [Compound 415, ((2-(((2S)-1-((2S,4R)-2-((4-bromophenyl)(methyl)carbamoyl)-4-(2-((11-(2-(2,6-dioxopiperidin-3-yl)-1-oxoisoindolin-4-yl)undec-10-yn-1-yl)amino)-2-oxoethoxy)pyrrolidin-1-yl)-3,3-dimethyl-1-oxobutan-2-yl)carbamoyl)benzo[b]thiophen-5-yl)difluoromethyl)phosphonic acid] |  |
|  |  |  |  | CC(C)(C)[C@H](NC(=O)c1cc2cc(C(F)(F)P(=O)(O)O)ccc2s1)C(=O)N1CCC[C@H]1C(=O)N(CCC(=O)NCCCCC#Cc1cccc2c1CN(C1CCC(=O)NC1=O)C2=O)c1ccc(Br)cc1 (stereo partly drawn) [Compound 686, ((2-(((2S)-1-((2S)-2-((4-bromophenyl)(3-((6-(2-(2,6-dioxopiperidin-3-yl)-1-oxoisoindolin-4-yl)hex-5-yn-1-yl)amino)-3-oxopropyl)carbamoyl)pyrrolidin-1-yl)-3,3-dimethyl-1-oxobutan-2-yl)carbamoyl)benzo[b]thiophen-5-yl)difluoromethyl)phosphonic acid] | DC50 (STAT5; [7]): 0.1 to 1 µM; DC50 (STAT6; KU-812 cells, read-out: DC50 S6 KU-812): > 10 µM |

| Structure (SMILES) | DC50 (STAT6; [2]) [µM] | DC50 (STAT5; [3]) [µM] | DC50 (STAT6; [4]) [µM] | DC50 (STAT6; [5]) [µM] | further results |
| --- | --- | --- | --- | --- | --- |
| CC(C)(C)[C@H](NC(=O)c1cc2cc(C(F)(F)P(=O)(O)O)ccc2s1)C(=O)N1C[C@H](NC(=O)CCCCCC#Cc2cccc3c2CN(C2CCC(=O)NC2=O)C3=O)C[C@H]1C(=O)Nc1ncc(-c2ccccc2)s1 (stereo partly drawn) [Compound 567, ((2-(((2S)-1-((2S,4R)-4-(8-(2-(2,6-dioxopiperidin-3-yl)-1-oxoisoindolin-4-yl)oct-7-ynamido)-2-((5-phenylthiazol-2-yl)carbamoyl)pyrrolidin-1-yl)-3,3-dimethyl-1-oxobutan-2-yl)carbamoyl)benzo[b]thiophen-5-yl)difluoromethyl)phosphonic acid] | > 0.3 |  |  |  | DC50 (STAT5; [1]): > 0.3 µM |
